Reference: ChEMBL document CHEMBL1153281, “Synthesis and evaluation of aniline headgroups for alkynyl thienopyrimidine dual EGFR/ErbB-2 kinase inhibitors” (Bioorg Med Chem Lett, 2009)

Tests used:
[1] = biological target: T1, Receptor tyrosine-protein kinase erbB-2 (Homo sapiens, UniProt P04626); experiment: Inhibition of ErbB2 by SPA assay
HFF = experiment: cells; type: ADME, cell-based; settings: Homo sapiens
HN5 [2] = experiment: Antiproliferative activity against human HN5 cells overexpressing EGFR after 3 days; type: functional, cell-based; settings: HN5, 72 h
BT-474 = experiment: Antiproliferative activity against human BT474 cells overexpressing ErbB2 after 3 days; type: functional, cell-based; settings: BT-474, 72 h
[3] = biological target: T1, Receptor tyrosine-protein kinase erbB-2; experiment: Inhibition of ErbB2 by HTRF assay
[4] = biological target: T2, Epidermal growth factor receptor (Homo sapiens, UniProt P00533)
T2 sequence (P00533 whole entry): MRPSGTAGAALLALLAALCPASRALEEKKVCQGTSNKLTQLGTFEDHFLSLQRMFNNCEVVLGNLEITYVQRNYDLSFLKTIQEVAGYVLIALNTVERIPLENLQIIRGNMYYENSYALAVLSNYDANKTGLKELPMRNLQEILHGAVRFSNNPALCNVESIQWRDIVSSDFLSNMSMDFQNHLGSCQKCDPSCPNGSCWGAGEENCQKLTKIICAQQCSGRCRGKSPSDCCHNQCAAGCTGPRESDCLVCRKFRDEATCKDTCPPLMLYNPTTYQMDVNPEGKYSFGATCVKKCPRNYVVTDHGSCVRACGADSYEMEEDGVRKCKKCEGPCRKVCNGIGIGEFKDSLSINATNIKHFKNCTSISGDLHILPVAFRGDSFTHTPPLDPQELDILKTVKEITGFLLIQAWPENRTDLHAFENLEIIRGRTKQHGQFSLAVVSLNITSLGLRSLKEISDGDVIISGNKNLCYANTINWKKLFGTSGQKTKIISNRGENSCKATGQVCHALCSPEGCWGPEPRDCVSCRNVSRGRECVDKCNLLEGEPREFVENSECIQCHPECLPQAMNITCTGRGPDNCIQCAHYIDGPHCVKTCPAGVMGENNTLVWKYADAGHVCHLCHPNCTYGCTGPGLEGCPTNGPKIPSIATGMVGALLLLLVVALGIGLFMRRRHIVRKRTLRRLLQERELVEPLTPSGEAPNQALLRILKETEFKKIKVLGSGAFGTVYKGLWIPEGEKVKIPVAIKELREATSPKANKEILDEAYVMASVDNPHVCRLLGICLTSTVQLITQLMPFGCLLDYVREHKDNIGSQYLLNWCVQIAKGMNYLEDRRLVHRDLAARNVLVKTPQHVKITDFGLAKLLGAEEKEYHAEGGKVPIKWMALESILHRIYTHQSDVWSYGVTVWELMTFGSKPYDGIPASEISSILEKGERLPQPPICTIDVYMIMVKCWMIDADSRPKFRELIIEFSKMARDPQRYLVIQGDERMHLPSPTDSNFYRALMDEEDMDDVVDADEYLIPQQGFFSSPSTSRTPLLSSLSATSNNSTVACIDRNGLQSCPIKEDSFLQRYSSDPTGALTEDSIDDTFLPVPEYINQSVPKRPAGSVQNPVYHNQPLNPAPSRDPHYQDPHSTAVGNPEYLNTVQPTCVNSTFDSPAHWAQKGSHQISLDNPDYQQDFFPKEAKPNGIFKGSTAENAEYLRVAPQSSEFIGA
Description: Inhibition of EGFR by HTRF assay

[5] = biological target: T2, Epidermal growth factor receptor; experiment: Inhibition of EGFR by SPA assay
[6] = Protein binding in rat plasma by HPLC; type: ADME, cell-free; settings: read-out: PPB (converted)
Mus musculus = experiment: Dose normalized AUC in mouse at 10 mg/kg, po after 6 hrs; type: ADME, organism-based; design: time < 6 hr, dose 10 mg/kg, route oral; settings: in vivo
HN5 [7] = experiment: Ratio of IC50 for human HN5 cells to IC50 for hman BT474 cells; type: functional

T1 sequence (P04626 whole entry): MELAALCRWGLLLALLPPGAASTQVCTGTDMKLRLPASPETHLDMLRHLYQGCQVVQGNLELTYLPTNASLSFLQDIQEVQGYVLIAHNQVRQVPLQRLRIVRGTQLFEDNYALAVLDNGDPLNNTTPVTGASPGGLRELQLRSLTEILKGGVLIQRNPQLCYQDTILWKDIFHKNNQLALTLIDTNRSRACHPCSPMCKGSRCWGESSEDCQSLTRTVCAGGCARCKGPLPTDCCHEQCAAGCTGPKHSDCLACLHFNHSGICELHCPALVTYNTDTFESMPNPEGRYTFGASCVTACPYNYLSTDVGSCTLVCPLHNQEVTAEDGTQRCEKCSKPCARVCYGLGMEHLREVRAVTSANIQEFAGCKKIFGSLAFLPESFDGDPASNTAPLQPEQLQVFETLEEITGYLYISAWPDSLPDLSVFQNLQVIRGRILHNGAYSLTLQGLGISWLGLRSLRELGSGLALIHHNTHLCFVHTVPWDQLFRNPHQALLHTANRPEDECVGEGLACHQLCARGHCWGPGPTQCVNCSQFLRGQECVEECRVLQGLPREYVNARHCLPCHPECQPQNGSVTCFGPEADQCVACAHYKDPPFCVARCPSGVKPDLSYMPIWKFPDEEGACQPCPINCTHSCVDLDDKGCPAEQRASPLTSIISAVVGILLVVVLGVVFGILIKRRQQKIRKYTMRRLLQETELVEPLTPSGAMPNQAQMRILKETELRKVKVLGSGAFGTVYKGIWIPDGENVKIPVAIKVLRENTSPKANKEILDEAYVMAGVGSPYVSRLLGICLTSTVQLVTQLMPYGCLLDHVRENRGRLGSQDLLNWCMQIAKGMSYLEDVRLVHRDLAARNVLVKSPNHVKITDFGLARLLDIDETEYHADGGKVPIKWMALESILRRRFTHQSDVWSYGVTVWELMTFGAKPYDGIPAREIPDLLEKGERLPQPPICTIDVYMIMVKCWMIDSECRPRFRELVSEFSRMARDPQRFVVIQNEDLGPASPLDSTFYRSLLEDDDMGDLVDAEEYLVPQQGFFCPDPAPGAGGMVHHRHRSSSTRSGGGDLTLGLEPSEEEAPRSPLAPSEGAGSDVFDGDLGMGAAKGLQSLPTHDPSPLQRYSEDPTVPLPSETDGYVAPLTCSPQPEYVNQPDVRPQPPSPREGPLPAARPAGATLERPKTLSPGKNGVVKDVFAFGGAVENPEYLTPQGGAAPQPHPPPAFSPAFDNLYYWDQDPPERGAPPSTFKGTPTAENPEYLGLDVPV

Row | SMILES | IC50 [1] [nM] | IC50 (BT-474) [nM] | IC50 [3] [nM] | IC50 [4] [nM] | IC50 [5] [nM] | fraction unbound [6] | AUC (Mus musculus) [ng·h/mL/mg/kg] | IC50 (HFF) [nM] | IC50 (HN5 [2]) [nM] | Ratio IC50 (HN5 [7])
1 | O=C(O[C@H]1CN[C@H](C#Cc2cc3ncnc(Nc4ccc5c(ccn5CCc5ccccc5)c4)c3s2)C1)N1CCOCC1 | 2660 | 4850 |  |  |  |  |  | > 1000 | 2020 | 
2 | O=C(O[C@H]1CN[C@H](C#Cc2cc3ncnc(Nc4ccc(OCc5cccc(F)c5)nc4)c3s2)C1)N1CCOCC1 |  | 250 | 450 | 2600 |  |  |  | > 1000 | 490 | 
3 | O=C(O[C@H]1CN[C@H](C#Cc2cc3ncnc(Nc4ccc5c(cnn5S(=O)(=O)c5cccc(F)c5)c4)c3s2)C1)N1CCOCC1 |  | 110 | 85 | 230 |  |  |  | > 1000 | 540 | 
4 | O=C(O[C@H]1CN[C@H](C#Cc2cc3ncnc(Nc4ccc5c(ccn5Cc5cscn5)c4)c3s2)C1)N1CCOCC1 |  | 120 | 180 | 680 |  |  |  | > 1000 | 550 | 
5 | O=C(O[C@H]1CN[C@H](C#Cc2cc3ncnc(Nc4ccc5c(ccn5S(=O)(=O)c5ccsc5)c4)c3s2)C1)N1CCOCC1 | 120 | 120 |  |  | 150 |  |  | > 1000 | 630 | 
6 | O=C(O[C@H]1CN[C@H](C#Cc2cc3ncnc(Nc4ccc5c(c4)c(F)cn5Cc4ccccc4)c3s2)C1)N1CCOCC1 |  | 120 | 210 | 240 |  |  |  | > 1000 | 320 | 
7 | O=C(O[C@H]1CN[C@H](C#Cc2cc3ncnc(Nc4ccc(Cc5ccccc5)cc4)c3s2)C1)N1CCOCC1 |  | 70 |  | 240 |  | 0.036 |  | > 1000 | 270 | 
8 | Cc1cc(Oc2ccc(Nc3ncnc4cc(C#C[C@@H]5C[C@@H](OC(=O)N6CCOCC6)CN5)sc34)cc2Cl)no1 |  | 130 | 370 | 400 |  |  |  | > 1000 | 1450 | 
9 | O=C(O[C@H]1CN[C@H](C#Cc2cc3ncnc(Nc4ccc5c(ccn5Cc5ccccc5)c4)c3s2)C1)N1CCOCC1 |  | 110 | 60 | 90 |  |  |  | > 1000 | 190 | 
10 | O=C(O[C@H]1CN[C@H](C#Cc2cc3ncnc(Nc4ccc(Sc5cccc(F)c5)c(Cl)c4)c3s2)C1)N1CCOCC1 |  | 150 | 800 | 630 |  | 0.024 |  | > 1000 | 310 | 
11 | CC(c1cccc(F)c1)n1ncc2cc(Nc3ncnc4cc(C#C[C@@H]5C[C@@H](OC(=O)N6CCOCC6)CN5)sc34)ccc21 (stereo partly specified) |  | 130 | 130 | 120 |  |  |  | > 1000 | 70 | 
12 | O=C(O[C@H]1CN[C@H](C#Cc2cc3ncnc(Nc4ccc(Oc5ccnc6ccc(F)cc56)c(Cl)c4)c3s2)C1)N1CCOCC1 |  | 140 | 180 | 280 |  | 0.03 |  | > 1000 | 390 | 
13 | O=C(O[C@H]1CN[C@H](C#Cc2cc3ncnc(Nc4ccc(OCc5cscn5)c(Cl)c4)c3s2)C1)N1CCOCC1 |  | 70 | 60 | 120 |  | 0.051 |  | > 1000 | 440 | 
14 | O=C(O[C@H]1CN[C@H](C#Cc2cc3ncnc(Nc4ccc5c(cnn5Cc5cccc(F)c5)c4)c3s2)C1)N1CCOCC1 |  |  |  |  |  | 0.05 | 51 | > 1000 | 70 | 

The remaining compounds from weak to strong by IC50 (BT-474), led by results:

Row | IC50 [1] [nM] | IC50 (BT-474) [nM] | IC50 [3] [nM] | IC50 [4] [nM] | IC50 [5] [nM] | fraction unbound [6] | AUC (Mus musculus) [ng·h/mL/mg/kg] | SMILES | IC50 (HFF) [nM] | IC50 (HN5 [2]) [nM] | Ratio IC50 (HN5 [7])
15 |  | 100 | 260 | 1050 |  |  |  | O=C(O[C@H]1CN[C@H](C#Cc2cc3ncnc(Nc4ccc5c(Oc6ccccn6)cccc5c4)c3s2)C1)N1CCOCC1 | > 1000 | 120 | 
16 |  | 100 | 220 | 1650 |  |  |  | O=C(O[C@H]1CN[C@H](C#Cc2cc3ncnc(Nc4ccc(Sc5ccccn5)cc4)c3s2)C1)N1CCOCC1 | > 1000 | 380 | 
17 |  | 90 |  |  |  | 0.02 | 91 | O=C(O[C@H]1CN[C@H](C#Cc2cc3ncnc(Nc4ccc(OCc5cccc(F)c5)c(Cl)c4)c3s2)C1)N1CCOCC1 [GW869810X] | > 1000 | 260 | 
18 | 60 | 80 |  |  |  | 0.033 | 52 | O=C(O[C@H]1CN[C@H](C#Cc2cc3ncnc(Nc4ccc(Oc5ccccn5)c(Cl)c4)c3s2)C1)N1CCOCC1 | > 1000 | 280 | 
19 | 30 | 60 |  |  |  | 0.031 | 120 | O=C(O[C@H]1CN[C@H](C#Cc2cc3ncnc(Nc4ccc(OCc5ccccn5)c(Cl)c4)c3s2)C1)N1CCOCC1 | > 1000 | 240 | 
20 |  | 20 | 50 | 80 |  | 0.027 | 98 | O=C(O[C@H]1CN[C@H](C#Cc2cc3ncnc(Nc4ccc5c(cnn5Cc5ccccc5)c4)c3s2)C1)N1CCOCC1 | > 1000 | 70 | 
21 |  | 10 | 35 | 33 |  |  |  | O=C(O[C@H]1CN[C@H](C#Cc2cc3ncnc(Nc4ccc5c(cnn5Cc5cc(F)ccc5F)c4)c3s2)C1)N1CCOCC1 | > 1000 | 250 | 20
